# Laboratory results reported in a melting point compilation (Tetko et al.; mined from patent text by program, amines drawn as free bases though some values may be those of a salt).
row,melting point,Compound
1,102 to 103 °C,Cc1c(-c2ccccc2)oc2c(COCCCl)cccc2c1=O
2,154 to 156 °C,N#Cc1ccc(C=CCCC(=O)O)cc1
3,34 °C,CCOC(=O)c1ccc(NC2CCCc3ccccc32)cc1 (stereo unspecified)
4,222 to 223 °C,C#CCNc1cc(C(=O)O)cc(S(N)(=O)=O)c1Oc1ccccc1
5,91 to 94 °C,CC(C(=O)O)c1cccc(C2(c3ccccc3)OCCO2)c1 (stereo unspecified)
6,121 to 122 °C,COCCN(C)Cc1ccc(NC(=O)C2=Cc3cc(-c4ccc(C)cc4)ccc3OCC2)cc1
7,> 250 °C,Cc1nc(C(=O)O)co1
8,190 °C,O=C(NC[C@H]1O[C@H]1c1ccccc1)c1ccc(NC(=O)C(F)(F)F)cc1 (racemic)
9,133 °C,Cc1cc(OCCc2nc(-c3ccccc3)oc2C)ccc1OCC(=O)O
10,178 to 179 °C,CCOC(=O)NNc1cc(C)c(-c2ccc(Br)cc2)nn1
11,244 to 245 °C,O=C(O)C1CCc2[nH]c3ccc(Cl)c(Cl)c3c2C1 (stereo unspecified)
12,201 to 203 °C,Clc1ccc(C2(Cn3cncn3)OCOC2c2ccc(Cl)cc2Cl)cc1 (stereo unspecified)
13,142 to 145 °C,CCc1ccc2c(c1)C=Cc1oc(C)nc1C2c1cn(Cc2cccc(C(=O)Nc3n[nH]c(C(F)(F)F)n3)c2)c(=O)[nH]c1=S (stereo unspecified)
14,74.5 to 75 °C,CC(Oc1ccc(O)cc1)C(=O)Nc1ccc(OC(F)(F)F)cc1 (stereo unspecified)
15,> 300 °C,O=C1Nc2cc(NC(=O)c3c[nH]cc(-c4cccc(Cl)c4)c3=O)ccc2/C1=C/c1ccc[nH]1
16,98 to 101 °C,CCCCCNC(=O)c1ccc(Cl)nn1
17,76 to 78 °C,O=C(NCCO[N+](=O)[O-])c1cnc(C(F)(F)F)s1
18,100 to 102 °C,CCCCc1oc2ccccc2c1C(=O)c1ccc(OCCN(CC)CC)c(I)c1
19,130 to 135 °C,NC(=O)c1cccc(CN2C(=O)C3(COc4cc5c(cc43)OCCO5)c3ccccc32)c1 (stereo unspecified)
20,75.5 to 77 °C,CCOC(=O)C(CC(=O)c1ccc(Oc2ccc(Cl)cc2)cc1)SC(C)=O (stereo unspecified)
21,175 °C,CCC(CC)(CC(=O)Nc1cccc(OCc2ccc3cc(C)ccc3n2)c1)C(=O)O
22,220 to 221 °C,CCn1c(=O)n(-c2ccc(-n3ccn4c5ccccc5nc34)cc2)c2ncccc21
23,126 °C,CC(C)(C)[Si](C)(C)Oc1ccc(NC(=O)CCCl)cc1

row,melting point,Compound
1,85 °C,CCCCC[C@H]1CC[C@H](c2ccc(CC(=O)OCc3ccc(C#N)cc3)cc2)CC1
2,> 260 °C,CC(=O)Nc1nc(NC(C)=O)nc(-c2ccc(S(=O)(=O)c3ccccc3)cc2)n1
3,268 to 270 °C,CC(C)(CCc1noc(=O)[nH]1)c1ccc(C(=O)Nc2cn3cc(C(F)(F)F)ccc3n2)cc1
4,244 to 245 °C,Cc1c(Nc2ccc([N+](=O)[O-])cc2C(=O)O)cccc1C(F)(F)F
5,56 to 68 °C,Nc1c(Cl)cccc1CO
6,188 to 189 °C,COc1nc2cc(Cl)c(Cl)c(-c3nnnn3CCCO)c2nc1OC
7,171 to 172 °C,CCc1cccc(CC)c1-n1cncc1C(N)=O
8,158 to 159 °C,CSc1cc(N)nc(C(N)=O)c1
9,115 to 117 °C,COc1ccc2c(C=O)c(OCc3ccccc3)ccc2c1
10,165 to 167 °C,CC(C)c1cc(Oc2ccc(Cl)cc2)nc(C(C)C)c1NC(=S)NC(C)(C)C
11,150 to 151 °C,Cc1ccccc1-c1ccc(C(=O)Nc2ccc3cc(CN4CCCC4)cnc3c2C)cc1
12,147 to 148 °C,CCCN1CCNC1=C[N+](=O)[O-]
13,94 °C,CCOP(=O)(OCC)C1CCNc2ccc(C(F)(F)F)cc21 (stereo unspecified)
14,142 to 143 °C,O=S(=O)(c1ccc(Oc2ccccc2)cc1)c1ccc(Oc2ccccc2)cc1
15,165 to 168 °C,Cc1ccc(S(=O)(=O)n2c(CCC(=O)O)cc3cc(Cl)ccc32)cc1
16,218 to 222 °C,O=C(O)c1cccc(-c2cccn3c(=O)n(Cc4cccc(C(F)(F)F)c4)nc23)c1
17,151 to 153 °C,CCc1cnc2ccnn2c1NCc1ccc(-c2ccccc2C#N)cc1
18,110 to 112 °C,O=C(NCC1CCCC1)c1ccc2[nH]ccc2c1
19,64 to 66 °C,CC(C)(C)OC(=O)C[C@H](NC(=O)CCCC(=O)Nc1ccc(C#N)cc1)C(=O)N[C@@H](Cc1ccccc1)C(=O)OC(C)(C)C
20,165 to 168 °C,CCCONC(=O)c1nc(-c2ccc(Cl)c(OC)c2F)cc(N)c1Cl
21,128 to 130 °C,CCOC(=O)c1ccc2n1Cc1ccccc1N1CCN(C)CC21 (stereo unspecified)
22,97 to 102 °C,COC(=O)C1CC(=O)N(Cc2ccccc2)C1c1c(Cl)cccc1Cl (stereo unspecified)
23,155 to 156 °C,CCOC(=O)c1c(C)cc2c(c1C)c(=O)n(-c1ccccc1Cl)c(=O)n2CCCN(C)C

row,melting point,Compound
1,89 to 90 °C,CCc1cc(C)nc2c(C)ccc([N+](=O)[O-])c12
2,207 to 209 °C,CC(C)(C)c1ccc2c(O)ccnc2c1
3,257 to 259 °C,O=C(Nc1ccc(C(=O)N2Cc3ccccc3Cc3ccccc32)cc1)c1cc(Cl)cc(Cl)c1
4,82 °C,COC(=O)N(C)CCCCC(=O)OC[C@@H]1CC(c2ccc(-c3ccc(N4C[C@H](Cn5ccnn5)OC4=O)cc3F)cn2)=NO1
5,122 to 124 °C,c1ccc(-c2ccn3nccc3n2)cc1
6,170 to 171 °C,CC(C)c1cccc(C(C)C)c1NC(=O)NCC1=CCCc2ccccc21
7,173 to 174 °C,O=[N+]([O-])c1cc2c(c3ccc(S(=O)(=O)NCCO)cc13)C(CCl)CN2 (stereo unspecified)
8,151 °C,O=C(Nc1ccc(N2CCOCC2=O)cc1)[C@H]1C[C@@H](O)CN1C(=O)/C=C/c1ccc(Cl)s1
9,258 to 260 °C,COc1ccc(-c2oc(C(=O)O)cc(=O)c2O)cc1
10,127 to 128 °C,CS(=O)c1cc(-c2ccc(C(F)(F)F)cc2)ccc1C#N (stereo unspecified)
11,211 to 212 °C,CS(=O)(=O)c1ccc(-c2nn(Cc3ccccc3)c(=O)cc2-c2ccccc2)cc1
12,166 to 168 °C,COc1cc2c(cc1C(F)(F)F)N(C(=O)Nc1ccccc1CCN(C)C)CC2
13,80 °C,CCOC(=O)C(C)Oc1cc(-c2ccccc2)nc2ccccc12 (stereo unspecified)
14,203 to 205 °C,C#Cc1cc(NC(=O)c2cnn(-c3ccc(Cl)cc3)c2C)ccc1N1CCC(N2CCOCC2)CC1
15,147 to 148 °C,COc1ccc(CCOc2cccc(-c3cccc(C(=O)O)c3)n2)cc1OC
16,241 to 245 °C,CCCc1nc(CC)c(C=O)n1Cc1ccc(-c2ccccc2-c2c(O)c(=O)c2=O)cc1
17,227 °C,Cn1ccnc1-c1ccccc1Nc1nc(Nc2ccc3c(c2)C(C)(C)CCC(=O)N3)ncc1Cl
18,164 to 166 °C,C#CCOc1cc(-n2c(C#N)c(C#N)n(CCC)c2=O)c(F)cc1Cl
19,204 to 206 °C,CCOC(=O)c1csc(Nc2nc(C(C)(C)C)c(O)c(C(C)(C)C)n2)n1
20,192 to 194 °C,CCCn1c(=O)n2c(C)nnc2c2c1ncn2C
21,54 °C,CC(C)Oc1ccc(Cc2nn(-c3ccccc3Cl)c(=O)o2)cc1
22,196 to 198 °C,OC(CCc1ccccc1)(c1ccccc1)c1cncn1Cc1ccccc1 (stereo unspecified)
23,120 °C,CC(=O)Nc1ccc(C(=O)c2cc(-c3cccnc3)c(N3CCOCC3)s2)cc1

row,melting point,Compound
1,215 to 217 °C,Cc1nc(-n2[nH]c(C)c(Cc3ccc(Cl)cc3)c2=O)sc1C(=O)NCc1cccnc1
2,210 °C,CC(=O)N1CCc2cc(S(=O)(=O)C[N+](=O)[O-])ccc21
3,148 to 149 °C,Clc1cccc(N2CCN(Cc3cn4cc(Cl)ccc4n3)CC2)c1
4,195 to 200 °C,COC(=O)C(NS(=O)(=O)c1ccc(-c2ccc(NC(=O)c3cc4ccccc4o3)cc2)cc1)C(C)C (stereo unspecified)
5,165 to 168 °C,Cc1cc(C(=O)CCCCCCCCC(=O)c2cc(C)c(O)c(C(C)(C)C)c2)cc(C(C)(C)C)c1O
6,103 °C,CCCCCCCCC#Cc1ccc(C(=O)O)cc1
7,137 to 138 °C,CCN1C(=O)CCc2cnc(Nc3ccccc3)cc21
8,231 to 234 °C,O=c1c2c[nH]c3ccccc3n-2c(=O)n1-c1ccccc1
9,105 to 109 °C,FC(F)(F)c1ccc(OCCc2c[nH]cn2)cc1
10,189 to 191 °C,Nc1nc(-c2cc(Cl)ccc2Cl)nc(N2CCOCC2)n1
11,165 to 166 °C,CCOc1cc(N(Cc2cncnc2)c2ccc(C(=O)O)cc2)ccc1OC(F)F
12,90 to 91 °C,COc1ccc(C2(C#Cc3ccccc3)CCCC(=O)C2)cc1OC1CCCC1 (stereo unspecified)
13,156 to 160 °C,Cc1ccc(-c2nc(Cc3cc4cc(CO)ccc4o3)c(C)o2)cc1
14,123 °C,CCOc1ccc(Cc2cc([C@@H]3O[C@H](SC)[C@@H](O)[C@H](O)[C@H]3O)ccc2Cl)cc1
15,87 to 89 °C,COc1ccccc1N1CCN(CCCCN2CCN(c3cccc(Cl)c3)C2=O)CC1
16,142 °C,CCN(CC)CCOc1ccc(Nc2ncc3c(n2)N(C)C(=O)N(c2c(Cl)cc(Cl)cc2Cl)C3)cc1
17,215 to 216 °C,Cc1nc2c(N)nc3ccccc3c2n1CCCCNS(=O)(=O)c1ccccc1
18,198 °C,CN(C)CCNS(=O)(=O)c1cc(NC(=O)c2cnn3c(C(F)(F)F)cc(-c4ccc(C(F)(F)F)cc4)nc23)c(Cl)s1
19,142 °C,O=C(O)CCSCSCC(C(=O)O)c1cccc(OCc2ccc3ccc(Cl)cc3n2)c1 (stereo unspecified)
20,196 to 198 °C,CCCOc1ccccc1-c1nc2nc(OCC)ncc2c(=O)[nH]1
21,163 to 165 °C,CCSC1(SCC)CCC2C3CCC4=CC(=O)C=CC4(C)C3C(O)CC21C (stereo unspecified)
22,232 to 234 °C,CC12CCCc3cc(Nc4ccc(C(=O)O)cc4)cc(c31)CCC2
23,102 to 104 °C,Cc1cccc(/C=C/c2nc(COc3ccc(CCCCc4c[nH]c(CC(O)CO)n4)cc3)co2)c1 (stereo unspecified)

row,Compound,melting point
1,CCOC(=O)C1(N)N=C(c2ccccc2Cl)c2cc(CC)sc2-n2c(C)nnc21 (stereo unspecified),180 to 181 °C
2,"CCCN1CCC(O)(c2cccc(F)c2F)C1 (single isomer, unassigned; (-))",95 to 98 °C
3,CC1Nc2ccc3c(c2N1C)OC(CN1CC=C(c2c[nH]c4ccccc24)CC1)CO3 (stereo unspecified),186 to 188 °C
4,COc1ccc(C(O)(c2ccc(OC)cc2)C2CCNCC2)cc1,153 to 155 °C
